Data set [1] deals with T1, Panx-1 channels (Mus musculus, UniProt Q9JIP4).
T1 construct: expressed in transfected cells; host or cells: Xenopus laevis oocytes injected with in vitro-transcribed mRNA
As to the kind of experiment: Voltage clamp on Xenopus laevis oocytes expressing Panx-1 channels. The settings on record: for inhibition at 50 µM / I (%) inhibition of Panx-1 currents: voltage clamp, Xenopus laevis oocytes expressing Panx-1 channels, 50 µM; for inhibition at 50 µM: read-out: I (%) inhibition of Panx-1 currents. Format: cell-based. The protocol: All new products were screened as Panx-1 blockers at the dose of 50 µM using the Voltage Clamp technique on Xenopus Laevis oocytes expressing Panx-1 channels. The membrane potential of the cells was held at -60 mV and voltage steps to +60 mV were applied to induce membrane currents. To verify that Panx-1 channels carried the currents, in each experiment 100 µM carbenoxolone (CBX) was applied. At this concentration, CBX is known to yield 100% inhibition of Panx-1 activity. If present, leak currents resistant to CBX were subtracted from the total current to assess % inhibition mediated by the tested compounds. Table 1 and Table 2 report the electrophysiological results of naphthalene-2-sulphonic acid derivatives bearing at position 5 an amino- (3a–e, 4 and 5) or amide group (7a–g, 8 and 9) and of compound 13.
Oocytes of Xenopus laevis are prepared as previously described in [39] where the oocytes are isolated from surgically removed ovary segments incubated in an Oocyte Ringe solution Ca2-free (OR2: in mM: 82.5 NaCl, 2.5 KCl, 1.0 MgCl2, […], 1.0 Na2HPO4 e 5.0 HEPES, pH 7.5) with 2 mg/mL of collagenase and antibiotics (10,000 U/mL penicillin and 10 mg/mL of streptomycin) stirred at room temperature for 3 h. After being washed with OR2, oocytes free of follicular cells and that have a uniform pigmentation are chosen and stored in OR2 for 18 °C.
Mouse pannexin1, in pCS2, was linearised with NotI. In vitro transcription was performed with the polymerase SP6, using the Message Machine kit (Ambion). mRNA was quantified by absorbance (260 nm), and the proportion of full-length transcripts was checked by agarose gel electrophoresis. In vitro-transcribed mRNA (~20 nL) was injected into Xenopus laevis oocytes.
Whole-cell membrane currents of oocytes were measured using a two-electrode voltage clamp (Gene Clamp 500B, Axon Instruments/Molecular Devices Sunnyvale, Union City, CA, USA). Glass pipettes were pulled using a P-97 Flaming/Brown type puller (Sutter, Novato, CA, USA). The recording chamber was perfused continuously with frog Ringer (OR) solution (in mM: 82.5 NaCl, 2.5 KCl, 1 CaCl2, 1 MgCl2, 1 Na2HPO4, and 5 HEPES, pH 7.5).
Membrane conductance was determined using voltage pulses, and the pulse-induced current amplitudes were divided by the amplitudes of the voltage steps. For calculation of % inhibition, leak currents were subtracted. Typically, leak currents after the interventions were smaller than at the beginning of the experiment and this smaller value was used for the subtraction to avoid overestimation of the inhibitory effect. For an independent measure of the leak current, oocytes at the end of the experiment were exposed to 100 µM carbenoxolone, which is known to close Panx1 channels 100%. Oocytes expressing Panx1 were held at −60 mV, and pulses to +60 mV were applied to transiently open the channels by means of the voltage gate. Pulses 5 s in duration were applied at 0.1 Hz for current and conductance measurements.

Data set [2] addresses T1, Panx-1 channels. Described as above. Particulars: for IC50: dose-response curves, Panx1-mediated membrane currents in oocytes. Format: cell-based.
Data set [3] concerns oxaliplatin-induced thermal allodynia in mice. As to the kind of experiment: Cold plate test in mouse model of oxaliplatin-induced neuropathic pain. The class given is in vivo. Particulars: oxaliplatin-treated mice; for time of maximum anti-allodynic effect: 3 nmol intrathecally; for pain threshold (licking latency), Cold plate test: 1 nmol and 3 nmol intrathecally, vs oxaliplatin + vehicle. The protocol:
The two selected Panx-1 blockers, 4 and 13, were tested in a mouse model of oxaliplatin-induced neuropathic pain that involves this channel. Oxaliplatin is a third-generation platinum-based chemotherapeutic agent that, similar to other platinum-based compounds, interferes with the proliferation of tumor cells, leading to cancer cell destruction […] Recent studies have highlighted the efficacy of selective Panx1 antagonists in […] evoked by repeated administrations of antineoplastic drug, making Panx1 a possible therapeutic target in reducing chemotherapeutic-induced neuropathic pain [16, 23]. In this experiment we tested the anti-hypersensitivity properties of two novel Panx1 antagonists in a mouse model of oxaliplatin-induced thermal allodynia. […] This time delay is reported here as licking latency (s). The two compounds were acutely injected intrathecally at 1 nmol and 3 nmol in oxaliplatin-treated animals. […] The effect recorded was dose-dependent (Figure 5b).
Eight-week-old male CD-1 mice (Envigo, Varese, Italy) weighing approximately 20–25 g at the beginning of the experimental procedure were used. Animals were housed in the Centro Stabulazione Animali da Laboratorio (CeSAL; University of Florence, Italy) and used at least 1 week after their arrival; 10 mice were housed per cage (size 26 cm × 41 cm). Animals were fed a standard laboratory diet and tap water ad libitum and kept at 23 ± 1 °C with a 12 h light/dark cycle (light at 7 a.m.).
Mice treated with oxaliplatin (Carbosynth, Pangbourne, UK; 2.4 mg kg^−1) were administered intraperitoneally (i.p.) for 2 weeks Oxaliplatin was dissolved in a 5% glucose solution. Control animals received an equivalent volume of vehicle. Behavioural tests were performed starting from day 14, when neuropathy was well established.
Compounds 4 and 13 were intrathecally (i.t.) injected in conscious mice as previously described. Compound 4 was dissolved in sterile saline solution while compound 13 was dissolved in a mixture consisting of PEG400, TWEEN 20 and sterile saline solution (1:1:3, respectively). Briefly, a 25 µL Hamilton syringe connected to a 30-gauge needle was intervertebrally inserted between the L4 and L5 region, and advanced 6 mm into the lumbar enlargement of the spinal cord. Behavioural measurements were performed before and 15 min, 30 min, 45 min, and 60 min after the administration of compounds.
Thermal allodynia was assessed using the Cold-plate test. With minimal animal-handler interaction, mice were taken from home-cages, and placed onto the surface of the cold-plate (Ugo Basile, Varese, Italy) maintained at a constant temperature of 4 ± 1 °C. Ambulation was restricted by a cylindrical plexiglas chamber (diameter: 10 cm, height: 15 cm), with open top. A timer controlled by foot peddle began timing response latency from the moment the mouse was placed onto the cold-plate. Pain-related behaviour (licking of the hind paw) was observed, and the time (seconds) of the first sign was recorded. The cut-off time of the latency of paw lifting or licking was set at 30 s.
Figure 5 Pain-relieving effect of (a) 4 and (b) 13 on oxaliplatin-induced thermal allodynia in mice. Cold plate test. […] Pain-related behavior (i.e., lifting and licking of the hind paw) was observed and the time (s) of the first sign was recorded. ** p < 0.01 vs. vehicle + vehicle treated animals; ^ p < 0.05 and ^^ p < 0.01 vs. oxaliplatin + vehicle treated animals. […]

The structures appear in SMILES notation. “Also recorded” adds a separate entry of the source.

This note sets out measurements from publication PMC9103715, “New Panx-1 Blockers: Synthesis, Biological Evaluation and Molecular Dynamic Studies” (International Journal of Molecular Sciences, 2022).

T1 sequence (Q9JIP4 whole entry): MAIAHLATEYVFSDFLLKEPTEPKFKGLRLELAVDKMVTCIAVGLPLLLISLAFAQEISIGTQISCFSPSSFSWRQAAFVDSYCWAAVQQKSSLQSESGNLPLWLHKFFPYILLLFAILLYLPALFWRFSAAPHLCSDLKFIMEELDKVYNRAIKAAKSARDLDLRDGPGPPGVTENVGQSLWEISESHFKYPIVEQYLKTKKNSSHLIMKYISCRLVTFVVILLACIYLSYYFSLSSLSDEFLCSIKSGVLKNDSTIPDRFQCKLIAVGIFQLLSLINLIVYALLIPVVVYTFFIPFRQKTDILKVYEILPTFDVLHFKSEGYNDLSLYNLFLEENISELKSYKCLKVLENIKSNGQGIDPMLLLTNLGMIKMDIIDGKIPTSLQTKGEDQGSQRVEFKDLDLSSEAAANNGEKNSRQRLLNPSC

For `O=S(=O)(O)c1ccc2c(NCCCc3ccccc3)cccc2c1` [Compound 3c, 5-[(3-Phenylpropyl)amino]naphthalene-2-sulfonic acid], the inhibition – broadly, the drop in the measured response relative to a control, in per cent – at 50 µM in data set [1] came out at 66.7 ± 5.5%. Further, the IC50 (as a rule, the concentration that gives 50% inhibition) in data set [2] came to 9 µM.

For `O=C(O)c1ccc(CNc2cccc3cc(S(=O)(=O)O)ccc23)cc1` [Compound 4, 4-[(6-Sulfonaphthalen-1-yl)aminomethyl]benzoic Acid], the inhibition at 50 µM in data set [1] was determined as 97 ± 1.5%. In addition, in data set [3], the “time of maximum anti-allodynic effect” value is recorded as 45 min and the “pain threshold (licking latency), Cold plate test” value is reported as “significantly increase the mouse pain threshold; also recorded: significant enhancement of the pain threshold”. In addition, in data set [3] (intrathecal injection), the “time after injection from which the enhancement of pain threshold is significant” value turned out to be 30 min. Besides, it took 8.8 µM to reach half-maximal inhibition in data set [2] (IC50).

On to `CCCCN(CCCC)S(=O)(=O)c1ccc(C(=O)Nc2cccc3cc(S(=O)(=O)O)ccc23)cc1` [Compound 7c, 5-[4-(N,N-dibutylsulfamoyl)benzamido]naphthalene-2-sulfonic acid], for which the inhibition at 50 µM in data set [1] is 67.8 ± 2.2%. The compound also had a half-maximal inhibitory concentration (IC50) in data set [2] of 40.4 µM.

As for `O=C(Nc1cccc2cc(S(=O)(=O)O)ccc12)c1ccc(S(=O)(=O)N(Cc2ccccc2)Cc2ccccc2)cc1` [Compound 7d, 5-[4-(N,N-dibenzylsulfamoyl)benzamido]naphthalene-2-sulfonic acid], in data set [1], the “I (%) inhibition of Panx-1 currents” value is 75.2 ± 5.90 (4) % and the inhibition at 50 µM was determined as 75%. In data set [2], this compound yielded an IC50 of 15.1 µM.

Consider `O=C(O)c1ccc(CN(Cc2ccc(C(=O)O)cc2)S(=O)(=O)c2ccc(C(=O)O)cc2)cc1` [Compound 13, 4,4′-{{[(4-Carboxyphenyl)sulfonyl]azanediyl}bis(methylene)}dibenzoic acid], for which, in data set [1], the “I (%) inhibition of Panx-1 currents” value is given as 93.7 ± 2.3% and the inhibition at 50 µM was 94%. In data set [3], the “time of maximum anti-allodynic effect” value amounted to 45 min and the “pain threshold (licking latency), Cold plate test” value is on record as “significantly increase the mouse pain threshold; also recorded: significant increase of the mouse pain threshold”. For the same compound, the “% inhibition of Panx1-mediated membrane currents” value in data set [2] (Figure 4 dose-response plot, concentration not printed in the legend) came out at 100%. In addition, the IC50 in data set [2] amounted to 1.2 µM.

`CCCNS(=O)(=O)c1ccc(-n2ncc(C(=O)O)c2N)cc1` [Compound 18b, 5-Amino-1-(4-(N-propylsulfamoyl)phenyl)-1H-pyrazole-4-carboxylic acid]: the melting point (in general, the temperature of the solid-liquid transition) was in the range of 215 to 218 °C. In addition, in data set [1], the inhibition at 50 µM worked out at 4 ± 2.3%.

`CCCCNS(=O)(=O)c1ccc(-n2ncc(C(=O)O)c2N)cc1` [Compound 18c, 5-Amino-1-(4-(N-butylsulfamoyl)phenyl)-1H-pyrazole-4-carboxylic acid] registered a melting point above 300 °C. Also, the inhibition at 50 µM in data set [1] turned out to be 10.3 ± 4.9%.

Take `CCN(CC)S(=O)(=O)c1ccc(-n2ncc(C(=O)O)c2N)cc1` [Compound 19a, 5-Amino-1-(4-(N,N-diethylsulfamoyl)phenyl)-1H-pyrazole-4-carboxylic acid]: the melting point is 240 °C (dec.). Besides, the inhibition at 50 µM in data set [1] stood at 14.3 ± 7.4%.

Consider `CCCN(CCC)S(=O)(=O)c1ccc(-n2ncc(C(=O)O)c2N)cc1` [Compound 19b, 5-Amino-1-(4-(N,N-dipropylsulfamoyl)phenyl)-1H-pyrazole-4-carboxylic acid], for which the melting point was in the range of 167 to 168 °C. Besides, the inhibition at 50 µM in data set [1] worked out at 21 ± 7.8%.

On to `CCCNc1c(C(=O)O)cnn1-c1ccc(S(=O)(=O)N(CCC)CCC)cc1` [Compound 19c, 1-(4-(N,N-dipropylsulfamoyl)phenyl)-5-(propylamino)-1H-pyrazole-4-carboxylic acid], for which the melting point lay in the range of 170 to 172 °C. Also, the inhibition at 50 µM in data set [1] stood at 28 ± 6.9%.

Take `Nc1c(C(=O)O)cnn1-c1ccc(S(=O)(=O)NCc2ccccc2)cc1` [Compound 23, 5-Amino-1-(4-(N-benzylsulfamoyl)phenyl)-1H-pyrazole-4-carboxylic acid]: the melting point is 207 to 210 °C. Also, the inhibition at 50 µM in data set [1] came out at 16.3 ± 6.4%.

On to `Nc1c(C(=O)O)cnn1-c1ccc(S(=O)(=O)N(Cc2ccccc2)Cc2ccccc2)cc1` [Compound 24, 5-Amino-1-(4-(N,N-dibenzylsulfamoyl)phenyl)-1H-pyrazole-4-carboxylic acid], for which the melting point lay in the range of 168 to 170 °C. For the same compound, in data set [1], the “I (%) inhibition of Panx-1 currents” value is recorded as 42.7 ± 2.4 (4) % and the inhibition at 50 µM worked out at 42%. Further, the “classification as active or inactive Panx-1 blocker” value in data set [1] (grouping chosen for the virtual screening) is “inactive”.

As to `Nc1c(C(=O)O)cnn1-c1ccc(S(=O)(=O)NCCc2ccccc2)cc1` [Compound 28, 5-Amino-1-(4-(N-phenethylsulfamoyl)phenyl)-1H-pyrazole-4-carboxylic acid], the melting point is 186 to 188 °C. For the same compound, the inhibition at 50 µM in data set [1] came out at 22.7 ± 5.5%.

`O=C(O)c1cnn(-c2ccc(S(=O)(=O)NCCc3ccccc3)cc2)c1NCCc1ccccc1` [Compound 29, 5-(Phenethylamino)-1-(4-(N-phenethylsulfamoyl)phenyl)-1H-pyrazole-4-carboxylic acid] displayed a melting point of 105 to 107 °C. In addition, the inhibition at 50 µM in data set [1] was 25.3 ± 0.9%.

For `Nc1c(C(=O)O)cnn1-c1ccc(S(=O)(=O)N(CCc2ccccc2)Cc2ccccc2)cc1` [Compound 30, 5-Amino-1-(4-(N-benzyl-N-phenethylsulfamoyl)phenyl)-1H-pyrazole-4-carboxylic acid], the melting point is 263 to 266 °C (dec.). Also, in data set [1], the inhibition at 50 µM turned out to be 30 ± 7.2%.
